# Reference: patent publication US20200246364A1, “MEDICAL APPLICATION OF COMPOSITION OF FRUCTOSE-1,6-BISPHOSPHATE AND BLOOD CONCENTRATION STABILIZER THEREOF” (ZHEJIANG UNIVERSITY, priority 2017, published 2020)
# Assays:
# KNS-89 [1] = experiment: Intracellular glycolytic intermediates (LC-MS/MS); type: cell-based, human; settings: KNS-89, 1.6 mM, 36 h
# glioma cells SHG-44 = experiment: Lactic acid released by glioma cells (glycolysis); type: cell-based, human
# Protocol: Human glioma cell strains (U87-MG, KNS-89, SHG-44) were respectively incubated in culture media containing 0.8 mM of trisodium fructose-1,6-bisphosphate salt, and 1.6 mM of trisodium fructose-1,6-bisphosphate salt, and 1.6 mM of 2-deoxyglucose, and the contents of lactic acid as the final glycolytic product released by the cells in the culture media were measured after 12 h, 24 h, 36 h, and 48 h. […] Human glioma cell strain (U87-MG) was incubated in the culture medium containing 0.8 mM of trisodium fructose-1,6-bisphosphate salt for 1 h, 3 h, 6 h, 12 h, 24 h, 36 h, and 48 h, and level changes of key metabolic enzymes in the glycolytic pathway of cells were measured by Western Blot at the respective time points.
# C6 [2] = experiment: Mitochondrial oxidative phosphorylation in glioma cells (ATP/ADP, NADH/NAD+, ATP); type: cell-based, rat
# KNS-89 [3] = experiment: as above; type: cell-based, human
# U87MG = experiment: 13C-glucose tracing: tricarboxylic acid circulation intermediates, derived amino acids, nucleotide synthesis (LC-MS/MS); type: cell-based, human; settings: 1.6 mM, 36 h
# Protocol: Human glioma cell strain (U87MG) was incubated in a medium containing ^13C-labeled glucose (U-^13C-Glc) and treated with 1.6 mM of trisodium fructose-1,6-bisphosphate for 36 h, and then using liquid-mass spectrometry (LC-MS/MS), intracellular tricarboxylic acid circulation intermediates, tricarboxylic acid circulation intermediates-derived amino acids and nucleotide de novo synthesis pathway intermediates were measured.
# C6 [4] = experiment: Reactive oxygen species and mitochondrial membrane potential; type: cell-based, rat; settings: C6, 0.8 mM
# C6 [5] = experiment: Glutathiones and NADPH/NADP+ (LC-MS/MS); type: cell-based, rat; settings: C6, 1.6 mM, 36 h
# Protocol: (§1) Rat glioma cell strain (C6) and human glioma cell strain (KNS-89, SHG-44) were respectively cultured in a medium containing 1.6 mM of trisodium fructose-1,6-bisphosphate for 36 h, and important antioxidants in cells were measured by liquid-mass spectrometry (LC-MS/MS).
# KNS-89 [6] = experiment: Glutathiones and NADPH/NADP+ (LC-MS/MS); type: cell-based, human; settings: KNS-89, 1.6 mM, 36 h
# Protocol: as §1
# SHG-44 = experiment: Glutathiones and NADPH/NADP+ (LC-MS/MS); type: cell-based, human; settings: SHG-44, 1.6 mM, 36 h
# Protocol: as §1
# Huh-7 = experiment: Cell viability, Sulforhodamine B (SRB) staining; type: cell-based, human; settings: Homo sapiens, Huh-7, 72 h, FBP 0.8 mM
# Protocol: Human liver cancer cell strains Bel-7402 and huh-7, which had been incubated for 24 hours, were respectively incubated in a medium containing 1.6 mM or 0.8 mM of trisodium fructose-1,6-bisphosphate, a medium containing 0.2 mM of metformin or 25 μM of sitagliptin, and a medium containing 0.8 mM of trisodium fructose-1,6-bisphosphate and 0.2 mM of metformin/25 μM of sitagliptin for 72 h. A control group (Con) was not treated with the agent. Cell viability was determined by Sulforhodamine B (SRB) staining analysis method.
# [7] = Weight gain and fat accumulation caused by high-fat diet; type: in vivo, ICR mice; settings: high-fat diet mice
# Protocol: 40 ICR male mice (17-19 g/per mouse) were divided into 2 groups. […] The animals of the normal group (Naive) were still fed with the basic feed, and the model animals were equally divided into 4 groups and were further fed with the high-fat diet. In addition, according to the amount of water the mice had consumed, a certain dose of the agent was dissolved in drinking water. The animals in the model group (Model) were fed with the purified water, the animals in the fructose-1,6-bisphosphate group were fed with water containing 0.18% of 8-molecule hydrate of sodium fructose-1,6-bisphosphate (equivalent to FBP 300 mg/kg), the animals in the sitagliptin group were fed with water containing 0.012% of sitagliptin phosphate salt (equivalent to STG 20 mg/kg), and the animals in the combination group were fed with water containing FBP 500 mg/kg+STG 20 mg/kg. The treatment lasted continuously for 6 weeks, the body weight, food intake and water intake were measured per week, the body weight and body length (CM) were measured on the last day of the last week, and a Lee's INDEX (Lee's INDEX=body weight (g)^(1/3) * 1000/body length (cm)) was calculated to evaluate the state of animal obesity. Then, the animals were sacrificed by cervical vertebra dislocation and the mice were dissected, the epididymal fat pad was taken and weighed, and a fat coefficient was calculated to further investigate the degree of obesity of the mice.
# [8] = test system: peripheral neuralgia induced by paclitaxel; experiment: Peripheral neuralgia induced by paclitaxel, hot plate experiment; type: in vivo, ICR mice
# Protocol: In this study, paclitaxel (2.8 mg/kg, 10 ml/kg) was injected intraperitoneally every other day, 4 times in total (days 1, 3, 5, 7) to induce peripheral neuralgia model in ICR female mice with a body weight of 20-24 g, and this model was used to observe the preventive effect of fructose-1,6-bisphosphate on the peripheral neuralgia caused by the chemotherapeutic agent. The paclitaxel antitumor agent is one of the first-line agents for human malignant tumors. Dose-limiting toxicity of paclitaxel mainly includes neurotoxicity and myelosuppression, the latter has been successfully overcome by using granulocyte colony-stimulating factor. However, the neurotoxicity, behaving as neuropathic pain, is still a worldwide problem, because the pain caused by this chemotherapy is not sensitive to any clinically used analgesics, and thus some patients have to reduce the dose until withdrawing the agent, which seriously affects the effect of the chemotherapy or even causes a failure of the chemotherapy. Some pains caused by the paclitaxel chemotherapy may not be eliminated immediately after the agent withdrawal, and often continues for months or even years, which seriously affects the life quality of tumor patients. In view of this, the peripheral neuralgia caused by paclitaxel is a representative pain after cancer treatment, and the animal pain model induced by paclitaxel is also representative.
# A hot plate method was used to screen mice having relatively uniform heat-sensitive responses for experiments. […]
# The heat-sensitive response of hind paws of the mice was measured with a hot plate experiment (52° C.±0.3) at 2 pm to 4 pm every day. […] In this way, a latent period of licking or retracting the hind paws was recorded. […] After the paclitaxel injection finished, the fructose-1,6-bisphosphate was continuously administrated and the heat-sensitive responses of the animals in each group were measured. […]
smiles,measurement,setting,value
"O=C(COP(=O)(O)O)[C@@H](O)[C@H](O)[C@H](O)COP(=O)(O)O [FBP, fructose-1,6-bisphosphate]",Increase folds of intracellular DHAP (compared with the control group),KNS-89 [1],8.74 folds
same,Increase folds of intracellular F6P (compared with the control group),KNS-89 [1],1.89 folds
same,Increase folds of intracellular FBP (compared with the control group),KNS-89 [1],21.97 folds
same,Increase folds of intracellular GAP (compared with the control group),KNS-89 [1],19.75 folds
same,Increase folds of intracellular PGA (compared with the control group),KNS-89 [1],3.28 folds
same,Relative levels of lactic acid (compared with the control group),"glioma cells SHG-44; SHG-44, 0.8 mM, 12 h",1.06 ± 0.05
same,Relative levels of lactic acid (compared with the control group),"glioma cells SHG-44; SHG-44, 0.8 mM, 24 h",0.87 ± 0.01
same,Relative levels of lactic acid (compared with the control group),"glioma cells SHG-44; SHG-44, 0.8 mM, 36 h",0.83 ± 0.05
same,Relative levels of lactic acid (compared with the control group),"glioma cells SHG-44; SHG-44, 1.6 mM, 12 h",0.89 ± 0.09
same,Relative levels of lactic acid (compared with the control group),"glioma cells SHG-44; SHG-44, 1.6 mM, 24 h",0.75 ± 0.07
same,Relative levels of lactic acid (compared with the control group),"glioma cells SHG-44; SHG-44, 1.6 mM, 36 h",0.58 ± 0.06
same,ratio of ATP/ADP (CON = 1.00),"C6 [2]; C6, 0.8 mM or 1.6 mM, 36 h",10.89 ± 1.37
same,ratio of NADH/NAD+ (CON = 1.00),"C6 [2]; C6, 0.8 mM or 1.6 mM, 36 h",7.76 ± 0.59
same,ATP level,"C6 [2]; C6, 36 h, vs control group",significantly increased
same,ratio of ATP/ADP (CON = 1.00),"KNS-89 [3]; KNS-89, 0.8 mM or 1.6 mM, 36 h",2.91 ± 0.03
same,ratio of NADH/NAD+ (CON = 1.00),"KNS-89 [3]; KNS-89, 0.8 mM or 1.6 mM, 36 h",9.44 ± 0.75
same,ATP level,"KNS-89 [3]; KNS-89, 36 h, vs control group",significantly increased
same,Relative level of Asp (compared with the control group),U87MG,0.16 ± 0.07
same,Relative level of Glu (compared with the control group),U87MG,0.35 ± 0.04
same,Relative level of OAA (compared with the control group),U87MG,1.87 ± 0.04
same,Relative level of α-KG (compared with the control group),U87MG,1.61 ± 0.01
same,Proportion of 13C-labeled purine/pyrimidine ring in A,U87MG; CON 12.41 ± 1.19,7.70 ± 1.50
same,Proportion of 13C-labeled purine/pyrimidine ring in U,U87MG; CON 20.58 ± 2.30,8.33 ± 0.90
same,Proportion of 13C-labeled purine/pyrimidine ring in ATP,U87MG; CON 38.26 ± 1.50,23.77 ± 0.57
same,Proportion of 13C-labeled purine/pyrimidine ring in UTP,U87MG; CON 50.67 ± 0.96,18.19 ± 0.87
same,Proportion of 13C-labeled purine/pyrimidine ring in G,U87MG; CON 53.75 ± 1.47,41.83 ± 4.06
same,Relative level of mitochondrial membrane potential (compared with the control group),C6 [4]; 12 h,0.8 ± 0.14
same,Relative level of reactive oxygen species (compared with the control group),C6 [4]; 12 h,1.26 ± 0.04
same,Relative level of mitochondrial membrane potential (compared with the control group),C6 [4]; 24 h,0.6 ± 0.11
same,Relative level of reactive oxygen species (compared with the control group),C6 [4]; 24 h,1.89 ± 0.03
same,Relative level of mitochondrial membrane potential (compared with the control group),C6 [4]; 48 h,0.1 ± 0.09
same,Relative level of mitochondrial membrane potential (compared with the control group),C6 [4]; 72 h,0.1 ± 0.07
same,Relative content of GSH (compared with the control group),C6 [5],0.69 ± 0.01
same,Relative content of GSSG (compared with the control group),C6 [5],0.06 ± 0.00
same,Relative ratio of NADPH to NADP+ (compared with the control group),C6 [5],0.14 ± 0.01
same,Relative content of GSH (compared with the control group),KNS-89 [6],0.01 ± 0.00
same,Relative content of GSSG (compared with the control group),KNS-89 [6],0.33 ± 0.02
same,Relative ratio of NADPH to NADP+ (compared with the control group),KNS-89 [6],0.44 ± 0.04
same,Relative content of GSH (compared with the control group),SHG-44,0.67 ± 0.01
same,Relative content of GSSG (compared with the control group),SHG-44,0.38 ± 0.01
same,Relative ratio of NADPH to NADP+ (compared with the control group),SHG-44,0.39 ± 0.01
same,viability at 800 µM,"Huh-7; STG 25 μM, read-out: cell viability (Con = 100)",80.4 ± 3.63%
same,cytotoxicity at 800 µM,"Huh-7; sitagliptin 25 μM, read-out: cell viability inhibited",20%
same,fat coefficient (epididymal fat pad),"[7]; 6 weeks, model group 3.96±0.83%, normal group 1.58±0.68%",2.81±0.81%
same,Lee's INDEX,"[7]; 6 weeks, model group 353.28±9.64, normal group 337.05±9.96",326.14±11.10
same,body weight after 6 weeks,"[7]; agents in drinking water, FBP 300 mg/kg, STG 20 mg/kg, combination FBP 500 mg/kg+STG 20 mg/kg, model group 47.89±3.34",45.93 ± 5.1 g
same,hind paw retraction latent period (hot plate 52° C.),"[8]; 400 mg/kg ig once per day, day 7 and any later time point, vs model group",significantly longer
same,efficacy against peripheral neuralgia over treatment duration,[8]; high-dose FBP (400 mg/kg),gradually disappears
same,efficacy against peripheral neuralgia over treatment duration,[8]; low-dose FBP (200 mg/kg),gradually increases
